Data from the NIST ThermoML archive (doi:10.1016/j.jct.2005.04.018).

Conditions: Liquid, Vibrating tube method

CCCCCC[n+]1ccn(C)c1.O=S(=O)([N-]S(=O)(=O)C(F)(F)F)C(F)(F)F
Conditions | mass density [kg/m3]
298.15 K, 100 kPa | 1370.81
298.15 K, 1830 kPa | 1372.13
298.15 K, 10020 kPa | 1378.18
298.15 K, 14980 kPa | 1381.7
298.15 K, 19750 kPa | 1384.98
298.15 K, 25860 kPa | 1389.1
298.15 K, 31480 kPa | 1392.73
298.15 K, 37770 kPa | 1396.74
298.15 K, 44170 kPa | 1400.64
298.15 K, 50750 kPa | 1404.48
298.15 K, 59590 kPa | 1409.53
299.15 K, 100 kPa | 1369.96
299.15 K, 1830 kPa | 1371.27
299.15 K, 10020 kPa | 1377.3
299.15 K, 14980 kPa | 1380.81
299.15 K, 19750 kPa | 1384.12
299.15 K, 25860 kPa | 1388.22
299.15 K, 31480 kPa | 1391.88
299.15 K, 37770 kPa | 1395.86
299.15 K, 44170 kPa | 1399.77
299.15 K, 50750 kPa | 1403.7
299.15 K, 59590 kPa | 1408.77
300.15 K, 100 kPa | 1368.97
300.15 K, 1830 kPa | 1370.29
300.15 K, 10020 kPa | 1376.36
300.15 K, 14980 kPa | 1379.86
300.15 K, 19750 kPa | 1383.21
300.15 K, 25860 kPa | 1387.32
300.15 K, 31480 kPa | 1391
300.15 K, 37770 kPa | 1395.01
300.15 K, 44170 kPa | 1398.88
300.15 K, 50750 kPa | 1402.84
300.15 K, 59590 kPa | 1407.93
301.15 K, 100 kPa | 1368.11
301.15 K, 1830 kPa | 1369.42
301.15 K, 10020 kPa | 1375.49
301.15 K, 14980 kPa | 1379.01
301.15 K, 19750 kPa | 1382.28
301.15 K, 25860 kPa | 1386.44
301.15 K, 31480 kPa | 1390.11
301.15 K, 37770 kPa | 1394.07
301.15 K, 44170 kPa | 1398.06
301.15 K, 50750 kPa | 1401.99
301.15 K, 59590 kPa | 1407.14
302.15 K, 100 kPa | 1367.15
302.15 K, 1830 kPa | 1368.47
302.15 K, 10020 kPa | 1374.56
302.15 K, 14980 kPa | 1378.1
302.15 K, 19750 kPa | 1381.43
302.15 K, 25860 kPa | 1385.56
302.15 K, 31480 kPa | 1389.24
302.15 K, 37770 kPa | 1393.28
302.15 K, 44170 kPa | 1397.22
302.15 K, 50750 kPa | 1401.19
302.15 K, 59590 kPa | 1406.37
303.15 K, 100 kPa | 1366.24
303.15 K, 1830 kPa | 1367.56
303.15 K, 10020 kPa | 1373.64
303.15 K, 14980 kPa | 1377.17
303.15 K, 19750 kPa | 1380.47
303.15 K, 25860 kPa | 1384.59
303.15 K, 31480 kPa | 1388.3
303.15 K, 44170 kPa | 1396.31
303.15 K, 50750 kPa | 1400.29
303.15 K, 59590 kPa | 1405.51
308.15 K, 100 kPa | 1361.65
308.15 K, 1830 kPa | 1362.96
308.15 K, 10020 kPa | 1369.05
308.15 K, 14980 kPa | 1372.62
308.15 K, 19750 kPa | 1375.95
308.15 K, 25860 kPa | 1380.12
308.15 K, 31480 kPa | 1383.86
308.15 K, 37770 kPa | 1387.93
308.15 K, 44170 kPa | 1391.98
308.15 K, 50750 kPa | 1396.05
308.15 K, 59590 kPa | 1401.4
313.15 K, 100 kPa | 1357.01
313.15 K, 1830 kPa | 1358.32
313.15 K, 10020 kPa | 1364.45
313.15 K, 14980 kPa | 1368.01
313.15 K, 19750 kPa | 1371.36
313.15 K, 25860 kPa | 1375.57
313.15 K, 31480 kPa | 1379.34
313.15 K, 37770 kPa | 1383.47
313.15 K, 44170 kPa | 1387.6
313.15 K, 50750 kPa | 1391.76
313.15 K, 59590 kPa | 1397.25
318.15 K, 100 kPa | 1352.32
318.15 K, 1830 kPa | 1353.62
318.15 K, 10020 kPa | 1359.84
318.15 K, 14980 kPa | 1363.45
318.15 K, 25860 kPa | 1371.1
318.15 K, 31480 kPa | 1374.91
318.15 K, 37770 kPa | 1379.09
318.15 K, 44170 kPa | 1383.28
318.15 K, 50750 kPa | 1387.51
323.15 K, 100 kPa | 1348.05
323.15 K, 1830 kPa | 1349.36
323.15 K, 10020 kPa | 1355.55
323.15 K, 14980 kPa | 1359.13
323.15 K, 19750 kPa | 1362.5
323.15 K, 25860 kPa | 1366.73
323.15 K, 31480 kPa | 1370.56
323.15 K, 37770 kPa | 1374.72
323.15 K, 44170 kPa | 1378.88
323.15 K, 50750 kPa | 1383.17
325.15 K, 100 kPa | 1346.34
325.15 K, 1830 kPa | 1347.7
325.15 K, 10020 kPa | 1354.03
325.15 K, 14980 kPa | 1357.71
325.15 K, 19750 kPa | 1361.18
325.15 K, 25860 kPa | 1365.48
325.15 K, 31480 kPa | 1369.35
325.15 K, 37770 kPa | 1373.57
325.15 K, 44170 kPa | 1377.76
325.15 K, 50750 kPa | 1382.02
327.15 K, 100 kPa | 1344.39
327.15 K, 1830 kPa | 1345.74
327.15 K, 10020 kPa | 1352.05
327.15 K, 14980 kPa | 1355.75
327.15 K, 19750 kPa | 1359.21
327.15 K, 25860 kPa | 1363.58
327.15 K, 31480 kPa | 1367.53
327.15 K, 37770 kPa | 1371.82
327.15 K, 44170 kPa | 1376.09
327.15 K, 50750 kPa | 1380.39
329.15 K, 100 kPa | 1342.33
329.15 K, 1830 kPa | 1343.71
329.15 K, 10020 kPa | 1350.14
329.15 K, 14980 kPa | 1353.87
329.15 K, 19750 kPa | 1357.38
329.15 K, 25860 kPa | 1361.77
329.15 K, 31480 kPa | 1365.68
329.15 K, 37770 kPa | 1369.99
329.15 K, 44170 kPa | 1374.26
329.15 K, 50750 kPa | 1378.59
331.15 K, 100 kPa | 1340.37
331.15 K, 1830 kPa | 1341.75
331.15 K, 10020 kPa | 1348.2
331.15 K, 14980 kPa | 1351.91
331.15 K, 19750 kPa | 1355.44
331.15 K, 25860 kPa | 1359.84
331.15 K, 31480 kPa | 1363.79
331.15 K, 37770 kPa | 1368.1
331.15 K, 44170 kPa | 1372.39
331.15 K, 50750 kPa | 1376.72
333.15 K, 100 kPa | 1338.24
333.15 K, 1830 kPa | 1339.65
333.15 K, 10020 kPa | 1346.2
333.15 K, 14980 kPa | 1349.99
333.15 K, 19750 kPa | 1353.57
333.15 K, 25860 kPa | 1358.01
333.15 K, 31480 kPa | 1361.98
333.15 K, 37770 kPa | 1366.34
333.15 K, 44170 kPa | 1370.63
333.15 K, 50750 kPa | 1374.95
